According to patent US4725683A, “Fluorophenoxyphenoxypropionates and derivatives thereof” (The Dow Chemical Company, priority 1985, dated 1988):

Key:
Experiment in all cases: Selective postemergence, track sprayer
Assay type in all cases: in vivo
[1] = system: Barley
Experimental: (§1) Representative compositions of the present invention were evaluated for the postemergence control of species of plants listed in Table A. In these evaluations, pots of the plant species listed in Table A, grown to a height of about 10 cms, were used. Aqueous spray compositions, containing various amounts of 2-[4-(2-fluoro-4-trifluoromethylphenoxy)-phenoxy]propionic acid methy ester, i.e., 125 ppm, 62.5 ppm, 31.25 ppm, 15.6 ppm, 7.8 ppm and 3.9 ppm, respectively, were applied to separate pots. The spray compositions were made by mixing the active ingredient in acetone to 1/2 the final volume, i.e., twice the final concentration. An equal amount of water was added to the active ingredient/acetone mixture wherein the water contained 0.1 percent by weight of TWEEN® 200 surfactant. The application to the plants was made to the point of run-off and was carried out with conventional spraying equipment. Other pots were sprayed with similar compositions containing no toxicant to serve as controls. Thereafter, the pots were maintained under conditions conducive for plant growth. Two weeks after treatment, the pots were examined for plant growth and evaluated on a scale of 0 to 100 where 0 represents no effect and 100 represents complete kill. The results of the examination of the treated pots are set forth below in Table A.
(§2) To further define the selective postemergence herbicidal characteristics of compounds of the present invention, chemicals were applied to additional species of grasses as listed in Table F. Chemicals evaluated were 2-[4-(4-bromo-2-fluorophenoxy)phenoxy]propionic acid methyl ester and its R isomer. Treatment conditions were similar to those described in Example A except that chemicals were delivered through a track sprayer set to deliver the appropriate dosages in 280.6 L/hectare of water containing 0.1% Tween-20 surfactant.

[2] = system: Sprangletop
Experimental: as §1, §2

[3] = system: Yellow Foxtail
Experimental: as §1, §2

[4] = system: Canarygrass
Experimental: as §1, §2

[5] = system: Tall Fescue
Experimental: as §1, §2

[6] = system: Giant Foxtail
Experimental: as §1, §2

[7] = system: Bermudagrass
Experimental: as §1, §2

[8] = system: Wild Proso Millet
Experimental: as §1, §2

[9] = system: Johnsongrass
Experimental: as §1, §2

[10] = system: Cheatgrass
Experimental: as §1, §2

[11] = system: Fall Panicum
Experimental: as §1, §2

[12] = system: Wild Oats
Experimental: as §1, §2

[13] = system: Crabgrass
Experimental: as §1, §2

COC(=O)[C@@H](C)Oc1ccc(Oc2ccc(Br)cc2F)cc1 [4-Bromo-(R-Enantiomer), R enantiomer of 2-[4-(4-bromo-2-fluorophenoxy)phenoxy]propionic acid methyl ester]
Percent Control ([1]; 0.00055 kgs/hectare): 0% | Percent Control ([1]; 0.0011 kgs/hectare): 0% | Percent Control ([1]; 0.0023 kgs/hectare): 0% | Percent Control ([1]; 0.0045 kgs/hectare): 0% | Percent Control ([1]; 0.009 kgs/hectare): 0% | Percent Control ([1]; 0.018 kgs/hectare): 0% | Percent Control ([1]; 0.035 kgs/hectare): 0% | Percent Control ([1]; 0.07 kgs/hectare): 0% | Percent Control ([1]; 0.14 kgs/hectare): 0% | Percent Control ([1]; 0.28 kgs/hectare): 0% | Percent Control ([2]; 0.00055 kgs/hectare): 0% | Percent Control ([2]; 0.0011 kgs/hectare): 20% | Percent Control ([2]; 0.0023 kgs/hectare): 100% | Percent Control ([2]; 0.0045 kgs/hectare): 100% | Percent Control ([2]; 0.009 kgs/hectare): 100% | Percent Control ([2]; 0.018 kgs/hectare): 100% | Percent Control ([2]; 0.035 kgs/hectare): 100% | Percent Control ([2]; 0.07 kgs/hectare): 100% | Percent Control ([2]; 0.14 kgs/hectare): 100% | Percent Control ([2]; 0.28 kgs/hectare): 100% | Percent Control ([3]; 0.00055 kgs/hectare): 0% | Percent Control ([3]; 0.0011 kgs/hectare): 0% | Percent Control ([3]; 0.0023 kgs/hectare): 20% | Percent Control ([3]; 0.0045 kgs/hectare): 20% | Percent Control ([3]; 0.009 kgs/hectare): 50% | Percent Control ([3]; 0.018 kgs/hectare): 90% | Percent Control ([3]; 0.035 kgs/hectare): 100% | Percent Control ([3]; 0.07 kgs/hectare): 100% | Percent Control ([3]; 0.14 kgs/hectare): 100% | Percent Control ([3]; 0.28 kgs/hectare): 100% | Percent Control ([4]; 0.00055 kgs/hectare): 0% | Percent Control ([4]; 0.0011 kgs/hectare): 0% | Percent Control ([4]; 0.0023 kgs/hectare): 0% | Percent Control ([4]; 0.0045 kgs/hectare): 0% | Percent Control ([4]; 0.009 kgs/hectare): 0% | Percent Control ([4]; 0.018 kgs/hectare): 0% | Percent Control ([4]; 0.035 kgs/hectare): 100% | Percent Control ([4]; 0.07 kgs/hectare): 100% | Percent Control ([4]; 0.14 kgs/hectare): 100% | Percent Control ([4]; 0.28 kgs/hectare): 100% | Percent Control ([5]; 0.00055 kgs/hectare): 0% | Percent Control ([5]; 0.0011 kgs/hectare): 0% | Percent Control ([5]; 0.0023 kgs/hectare): 0% | Percent Control ([5]; 0.0045 kgs/hectare): 20% | Percent Control ([5]; 0.009 kgs/hectare): 50% | Percent Control ([5]; 0.018 kgs/hectare): 70% | Percent Control ([5]; 0.035 kgs/hectare): 80% | Percent Control ([5]; 0.07 kgs/hectare): 90% | Percent Control ([5]; 0.14 kgs/hectare): 90% | Percent Control ([5]; 0.28 kgs/hectare): 90% | Percent Control ([6]; 0.00055 kgs/hectare): 80% | Percent Control ([6]; 0.0011 kgs/hectare): 100% | Percent Control ([6]; 0.0023 kgs/hectare): 100% | Percent Control ([6]; 0.0045 kgs/hectare): 100% | Percent Control ([6]; 0.009 kgs/hectare): 100% | Percent Control ([6]; 0.018 kgs/hectare): 100% | Percent Control ([6]; 0.035 kgs/hectare): 100% | Percent Control ([6]; 0.07 kgs/hectare): 100% | Percent Control ([6]; 0.14 kgs/hectare): 100% | Percent Control ([6]; 0.28 kgs/hectare): 100% | Percent Control ([7]; 0.00055 kgs/hectare): 0% | Percent Control ([7]; 0.0011 kgs/hectare): 0% | Percent Control ([7]; 0.0023 kgs/hectare): 0% | Percent Control ([7]; 0.0045 kgs/hectare): 20% | Percent Control ([7]; 0.009 kgs/hectare): 30% | Percent Control ([7]; 0.018 kgs/hectare): 60% | Percent Control ([7]; 0.035 kgs/hectare): 90% | Percent Control ([7]; 0.07 kgs/hectare): 90% | Percent Control ([7]; 0.14 kgs/hectare): 90% | Percent Control ([7]; 0.28 kgs/hectare): 95% | Percent Control ([8]; 0.00055 kgs/hectare): 30% | Percent Control ([8]; 0.0011 kgs/hectare): 30% | Percent Control ([8]; 0.0023 kgs/hectare): 80% | Percent Control ([8]; 0.0045 kgs/hectare): 100% | Percent Control ([8]; 0.009 kgs/hectare): 95% | Percent Control ([8]; 0.018 kgs/hectare): 100% | Percent Control ([8]; 0.035 kgs/hectare): 100% | Percent Control ([8]; 0.07 kgs/hectare): 100% | Percent Control ([8]; 0.14 kgs/hectare): 100% | Percent Control ([8]; 0.28 kgs/hectare): 100% | Percent Control ([9]; 0.00055 kgs/hectare): 0% | Percent Control ([9]; 0.0011 kgs/hectare): 0% | Percent Control ([9]; 0.0023 kgs/hectare): 0% | Percent Control ([9]; 0.0045 kgs/hectare): 0% | Percent Control ([9]; 0.009 kgs/hectare): 0% | Percent Control ([9]; 0.018 kgs/hectare): 0% | Percent Control ([9]; 0.035 kgs/hectare): 0% | Percent Control ([9]; 0.07 kgs/hectare): 20% | Percent Control ([9]; 0.14 kgs/hectare): 40% | Percent Control ([9]; 0.28 kgs/hectare): 70% | Percent Control ([10]; 0.00055 kgs/hectare): 0% | Percent Control ([10]; 0.0011 kgs/hectare): 0% | Percent Control ([10]; 0.0023 kgs/hectare): 0% | Percent Control ([10]; 0.0045 kgs/hectare): 0% | Percent Control ([10]; 0.009 kgs/hectare): 0% | Percent Control ([10]; 0.018 kgs/hectare): 0% | Percent Control ([10]; 0.035 kgs/hectare): 0% | Percent Control ([10]; 0.07 kgs/hectare): 0% | Percent Control ([10]; 0.14 kgs/hectare): 0% | Percent Control ([10]; 0.28 kgs/hectare): 0% | Percent Control ([11]; 0.00055 kgs/hectare): 20% | Percent Control ([11]; 0.0011 kgs/hectare): 30% | Percent Control ([11]; 0.0023 kgs/hectare): 50% | Percent Control ([11]; 0.0045 kgs/hectare): 80% | Percent Control ([11]; 0.009 kgs/hectare): 80% | Percent Control ([11]; 0.018 kgs/hectare): 100% | Percent Control ([11]; 0.035 kgs/hectare): 100% | Percent Control ([11]; 0.07 kgs/hectare): 100% | Percent Control ([11]; 0.14 kgs/hectare): 100% | Percent Control ([11]; 0.28 kgs/hectare): 100% | Percent Control ([12]; 0.00055 kgs/hectare): 0% | Percent Control ([12]; 0.0011 kgs/hectare): 0% | Percent Control ([12]; 0.0023 kgs/hectare): 0% | Percent Control ([12]; 0.0045 kgs/hectare): 0% | Percent Control ([12]; 0.009 kgs/hectare): 20% | Percent Control ([12]; 0.018 kgs/hectare): 20% | Percent Control ([12]; 0.035 kgs/hectare): 40% | Percent Control ([12]; 0.07 kgs/hectare): 70% | Percent Control ([12]; 0.14 kgs/hectare): 70% | Percent Control ([12]; 0.28 kgs/hectare): 95% | Percent Control ([13]; 0.00055 kgs/hectare): 0% | Percent Control ([13]; 0.0011 kgs/hectare): 0% | Percent Control ([13]; 0.0023 kgs/hectare): 0% | Percent Control ([13]; 0.0045 kgs/hectare): 50% | Percent Control ([13]; 0.009 kgs/hectare): 90% | Percent Control ([13]; 0.018 kgs/hectare): 90% | Percent Control ([13]; 0.035 kgs/hectare): 70% | Percent Control ([13]; 0.07 kgs/hectare): 100% | Percent Control ([13]; 0.14 kgs/hectare): 100% | Percent Control ([13]; 0.28 kgs/hectare): 100%
